In US20130210846A1, “USE OF NOVEL PAN-CDK INHIBITORS FOR TREATING TUMORS” (BAYER INTELLECTUAL PROPERTY GMBH, priority 2010, published 2013):

Columns and labels:
[1] = molecular target: T1, VEGF receptor tyrosine kinase-2 (VEGF-R2) (Homo sapiens, UniProt P35968); experiment: VEGF receptor-2 kinase assay (Assay 3); type: biochemical; conditions: 8 μM ATP, poly-(Glu4Tyr), 10 min 22° C.; read-out: VEGF-R2 (Assay 3) Concentration for half-maximal inhibition of the enzyme activity, IC50
T1 construct: GST; made in house; host or cells: baculovirus-infected insect cells (Sf9)
Experimental: Recombinant VEGF receptor tyrosine kinase-2 was purified as GST fusion protein from baculovirus-infected insect cells (Sf9). Poly-(Glu4Tyr), used as kinase substrate, was purchased from Sigma.
VEGF receptor tyrosine kinase (90 ng/measuring point) was incubated for 10 min at 22° C. in the presence of various concentrations of test substances (0 μM, and within the range 0.001-30 μM) in 30 μl assay buffer [40 mM Tris/HCl pH5.5, 10 mM MgCl2, 1 mM MnCl2, 3 μM Na ortho-vanadate, 1.0 mM dithiothreitol, 8 μM adenosine triphosphate (ATP), 0.96 μg/measuring point poly-(Glu4Tyr), 0.2 μCi/measuring point ^33P-gamma ATP, 1.4% dimethyl sulfoxide]. The reaction was stopped by adding EDTA solution (250 mM, pH 8.0, 15 μl/measuring point).
From each reaction mixture, 15 μl was applied to P30 filter strips (from Wallac), and unincorporated ^33P-ATP was removed by washing the filter strips three times, for 10 min each time, in 0.5% phosphoric acid. After drying the filter strips for 1 hour at 70° C., the filter strips were covered with scintillator strips (MeltiLex™ A, from Wallac) and stoved for 1 hour at 90° C. The amount of incorporated ^33P (substrate phosphorylation) was determined by scintillation measurement in a gamma-radiation measuring instrument (Wallac). The measured data were standardized to 0% inhibition (enzyme reaction without inhibitor) and 100% inhibition (all assay components except enzyme). The IC50 values were determined by means of a 4-parameter fit using the company's own software.

SK-BR-3 = experiment: Proliferation assay SK-BR-3; type: cell-based; conditions: Homo sapiens, 96 h; SK-BR-3, estrogen receptor-negative mamma carcinoma; 4 days, crystal violet
Experimental: (§1) Cultivated human tumor cells (originally obtained from ATCC, HeLa-MaTu and HeLa-MaTu-ADR, originally obtained from Epo GmbH, Berlin, Germany) were plated at a density of 1000 to 5000 cells/measuring point, depending on the growth rate of the cell line, in a 96-well multititer plate in 200 μl of growth medium (DMEM/HAMS F12, 2 mM L-glutamine, 10% fetal calf serum). After 24 hours the cells of one plate (zero-point plate) were stained with crystal violet (see below), whereas the medium of the other plates was replaced with fresh culture medium (200 μl), to which the test substances had been added at various concentrations (0 μM, and in the range 0.01-30 μM; the final concentration of the solvent dimethyl sulfoxide was 0.5%). The cells were incubated for 4 days in the presence of the test substances. Cellular proliferation was determined by staining the cells with crystal violet: the cells were fixed by adding 20 μl/measuring point of an 11% glutaraldehyde solution for 15 min at room temperature. After washing the fixed cells with water three times, the plates were dried at room temperature. The cells were stained by adding 100 μl/measuring point of a 0.1% crystal violet solution (pH adjusted to pH3 by adding acetic acid). After washing the stained cells with water three times, the plates were dried at room temperature. The dye was dissolved by adding 100 μl/measuring point of a 10% acetic acid solution. The extinction was determined photometrically at a wavelength of 595 nm. The percentage change in cell growth was calculated by standardization of the measured values to the extinction values of the zero-point plate (=0%) and the extinction of the untreated (0 μM) cells (=100%). The measured data were standardized to 0% inhibition (cell proliferation without inhibitor) and 100% inhibition (zero-point plate). The IC50 values were determined by means of a 4-parameter fit using the company's own software.
(§2) The substances were examined in the following cell lines which, in an exemplary manner, represent the stated indications: […]

MDA-MB 231 = experiment: Proliferation assay MDA-MB 231; type: cell-based; conditions: Homo sapiens, 96 h; MDA-MB 231, estrogen receptor-negative mamma carcinoma; 4 days, crystal violet
Experimental: as §1, with “After washing the fixed cells with water three times, the plates were dried at room temperature. The cells were stained by adding 100 μl/measuring point of a 0.1% crystal violet solution (pH adjusted to pH3 by adding acetic acid). After washing the stained cells with water three times, the plates were dried at room temperature. The dye was dissolved by adding 100 μl/measuring point of a 10% acetic acid solution.” left out, “The measured data were standardized to 0% inhibition (cell proliferation without inhibitor) and 100% inhibition (zero-point plate).” left out, “software. […]” for “software.”

MDA-MB 453 = experiment: Proliferation assay MDA-MB 453; type: cell-based; conditions: Homo sapiens, 96 h; MDA-MB 453, estrogen receptor-negative mamma carcinoma; 4 days, crystal violet
Experimental: as §1, §2

MCF7 = experiment: Proliferation assay MCF7; type: cell-based, human; conditions: MCF7, estrogen receptor-positive mamma carcinoma; 4 days, crystal violet
Experimental: as §1, §2

OVCAR-8 = experiment: Proliferation assay OVCAR-8; type: cell-based; conditions: Homo sapiens, 96 h; OVCAR-8, ovarial carcinoma; 4 days, crystal violet
Experimental: as §1, with “After washing the fixed cells with water three times, the plates were dried at room temperature. The cells were stained by adding 100 μl/measuring point of a 0.1% crystal violet solution (pH adjusted to pH3 by adding acetic acid). After washing the stained cells with water three times, the plates were dried at room temperature. The dye was dissolved by adding 100 μl/measuring point of a 10% acetic acid solution.” left out, “The measured data were standardized to 0% inhibition (cell proliferation without inhibitor) and 100% inhibition (zero-point plate).” left out, “software. […]” for “software.”

NCI-ADR-Res = experiment: Proliferation assay NCI-ADR-Res; type: cell-based; conditions: Homo sapiens, 96 h, ovarial carcinoma, 4 days, crystal violet
Experimental: as §1, §2

HT29 = experiment: Proliferation assay HT29; type: cell-based; conditions: Homo sapiens, HT-29, 96 h; HT29, colon/rectum carcinoma; 4 days, crystal violet
Experimental: as §1, §2

Caco-2 = experiment: Proliferation assay Caco-2; type: cell-based, human; conditions: Caco-2, colon/rectum carcinoma; 4 days, crystal violet
Experimental: as §1, §2

SW480 = experiment: Proliferation assay SW480; type: cell-based; conditions: Homo sapiens, 96 h; SW480, colon/rectum carcinoma; 4 days, crystal violet
Experimental: as §1, §2

HCT116 = experiment: Proliferation assay HCT116; type: cell-based; conditions: Homo sapiens, HCT-116, 96 h; HCT116, colon/rectum carcinoma; 4 days, crystal violet
Experimental: as §1, §2

DU145 = experiment: Proliferation assay DU145; type: cell-based, human; conditions: DU145, prostate carcinoma; 4 days, crystal violet
Experimental: as §1, §2

PC3 = experiment: Proliferation assay PC3; type: cell-based; conditions: Homo sapiens, PC-3, 96 h; PC3, prostate carcinoma; 4 days, crystal violet
Experimental: as §1, §2

NCI-H460 = experiment: Proliferation assay NCI-H460; type: cell-based, human; conditions: NCI-H460, non-small-cell bronchial carcinoma; 4 days, crystal violet
Experimental: as §1, §2

A549 = experiment: Proliferation assay A549; type: cell-based; conditions: Homo sapiens, 96 h; A549, non-small-cell bronchial carcinoma; 4 days, crystal violet
Experimental: as §1, §2

H1975 = experiment: Proliferation assay H1975; type: cell-based; conditions: Homo sapiens, NCI-H1975, 96 h; H1975, non-small-cell bronchial carcinoma; 4 days, crystal violet
Experimental: as §1, §2

NCI-H69 = experiment: Proliferation assay NCI-H69; type: cell-based; conditions: Homo sapiens, 96 h; NCI-H69, small-cell bronchial carcinoma; 4 days, crystal violet
Experimental: as §1, with “After washing the fixed cells with water three times, the plates were dried at room temperature. The cells were stained by adding 100 μl/measuring point of a 0.1% crystal violet solution (pH adjusted to pH3 by adding acetic acid). After washing the stained cells with water three times, the plates were dried at room temperature. The dye was dissolved by adding 100 μl/measuring point of a 10% acetic acid solution.” left out, “The measured data were standardized to 0% inhibition (cell proliferation without inhibitor) and 100% inhibition (zero-point plate).” left out, “software. […]” for “software.”

Caki2 = experiment: Proliferation assay Caki2; type: cell-based; conditions: Homo sapiens, CAKI-2, 96 h; Caki2, kidney carcinoma; 4 days, crystal violet
Experimental: as §1, §2

786-O = experiment: Proliferation assay 786-O; type: cell-based; conditions: Homo sapiens, 786-0, 96 h, kidney carcinoma, 4 days, crystal violet
Experimental: as §1, §2

MIA PaCa-2 = experiment: Proliferation assay MIA PaCa-2; type: cell-based; conditions: Homo sapiens, 96 h; MIA PaCa-2, pancreas carcinoma; 4 days, crystal violet
Experimental: as §1, §2

HeLa = experiment: Proliferation assay HeLa; type: cell-based; conditions: Homo sapiens, 96 h, cervix carcinoma, 4 days, crystal violet
Experimental: as §1, §2

HeLa-MaTu = experiment: Proliferation assay HeLa-MaTu; type: cell-based, human; conditions: cervix carcinoma, 4 days, crystal violet
Experimental: as §1, §2

HeLa-MaTu-ADR = experiment: Proliferation assay HeLa-MaTu-ADR; type: cell-based, human; conditions: cervix carcinoma, 4 days, crystal violet
Experimental: as §1, §2

A431 = experiment: Proliferation assay A431; type: cell-based; conditions: Homo sapiens, A-431, 96 h; A431, skin: epidermis; 4 days, crystal violet
Experimental: as §1, §2

A375 = experiment: Proliferation assay A375; type: cell-based; conditions: Homo sapiens, A-375, 96 h; A375, skin: melanoma; 4 days, crystal violet
Experimental: as §1, with “After washing the fixed cells with water three times, the plates were dried at room temperature. The cells were stained by adding 100 μl/measuring point of a 0.1% crystal violet solution (pH adjusted to pH3 by adding acetic acid). After washing the stained cells with water three times, the plates were dried at room temperature. The dye was dissolved by adding 100 μl/measuring point of a 10% acetic acid solution.” left out, “The measured data were standardized to 0% inhibition (cell proliferation without inhibitor) and 100% inhibition (zero-point plate).” left out, “software. […]” for “software.”

MOLM-13 = experiment: Proliferation assay MOLM-13; type: cell-based; conditions: Homo sapiens, 96 h; MOLM-13, leukemia; 4 days, crystal violet
Experimental: as §1, with “After washing the fixed cells with water three times, the plates were dried at room temperature. The cells were stained by adding 100 μl/measuring point of a 0.1% crystal violet solution (pH adjusted to pH3 by adding acetic acid). After washing the stained cells with water three times, the plates were dried at room temperature. The dye was dissolved by adding 100 μl/measuring point of a 10% acetic acid solution.” left out, “The measured data were standardized to 0% inhibition (cell proliferation without inhibitor) and 100% inhibition (zero-point plate).” left out, “software. […]” for “software.”

T1 sequence (P35968 20-1356, species assumed): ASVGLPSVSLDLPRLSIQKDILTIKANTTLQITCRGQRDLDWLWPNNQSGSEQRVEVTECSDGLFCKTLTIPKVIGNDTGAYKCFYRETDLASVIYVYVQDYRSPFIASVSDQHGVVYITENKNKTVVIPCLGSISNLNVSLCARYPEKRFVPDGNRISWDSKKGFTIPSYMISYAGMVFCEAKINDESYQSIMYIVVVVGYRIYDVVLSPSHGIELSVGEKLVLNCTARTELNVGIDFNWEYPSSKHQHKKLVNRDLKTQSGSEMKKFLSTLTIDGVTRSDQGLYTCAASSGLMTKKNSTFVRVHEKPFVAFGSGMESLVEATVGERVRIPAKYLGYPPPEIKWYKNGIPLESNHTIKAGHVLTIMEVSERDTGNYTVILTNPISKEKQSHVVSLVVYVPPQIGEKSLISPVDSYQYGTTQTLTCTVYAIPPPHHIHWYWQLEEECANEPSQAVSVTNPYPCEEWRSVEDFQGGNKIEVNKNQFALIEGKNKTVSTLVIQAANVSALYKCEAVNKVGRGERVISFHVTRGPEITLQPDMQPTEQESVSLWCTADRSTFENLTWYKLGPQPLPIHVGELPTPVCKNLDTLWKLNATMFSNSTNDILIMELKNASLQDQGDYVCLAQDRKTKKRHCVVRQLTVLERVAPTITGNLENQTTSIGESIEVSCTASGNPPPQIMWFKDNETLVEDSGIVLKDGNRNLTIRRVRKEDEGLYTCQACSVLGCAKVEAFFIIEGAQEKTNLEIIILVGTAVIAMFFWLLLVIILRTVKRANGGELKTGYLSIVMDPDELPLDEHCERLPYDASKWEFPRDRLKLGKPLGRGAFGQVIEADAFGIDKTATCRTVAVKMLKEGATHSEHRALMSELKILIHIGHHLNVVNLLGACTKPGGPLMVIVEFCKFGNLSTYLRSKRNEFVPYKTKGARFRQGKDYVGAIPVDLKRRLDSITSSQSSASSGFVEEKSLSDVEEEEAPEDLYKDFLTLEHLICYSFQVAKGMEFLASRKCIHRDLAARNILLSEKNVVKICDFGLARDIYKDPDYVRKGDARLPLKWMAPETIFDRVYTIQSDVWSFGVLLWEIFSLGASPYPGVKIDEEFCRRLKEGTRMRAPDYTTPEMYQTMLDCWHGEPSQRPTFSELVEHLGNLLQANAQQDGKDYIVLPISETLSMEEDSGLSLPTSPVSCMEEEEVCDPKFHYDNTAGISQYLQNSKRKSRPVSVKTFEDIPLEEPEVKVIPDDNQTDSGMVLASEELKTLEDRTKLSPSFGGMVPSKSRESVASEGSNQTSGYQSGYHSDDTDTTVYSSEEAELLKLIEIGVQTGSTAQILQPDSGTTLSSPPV

IC50 [1]: 163 nM | IC50 (SK-BR-3): 13 nM | IC50 (MDA-MB 231): 18 nM | IC50 (MDA-MB 453): 15 nM | IC50 (MCF7): 15 nM | IC50 (OVCAR-8): 12 nM | IC50 (HT29): 29 nM | IC50 (Caco-2): 16 nM | IC50 (SW480): 15 nM | IC50 (HCT116): 18 nM | IC50 (DU145): 8 nM | IC50 (PC3): 25 nM | IC50 (NCI-H460): 12 nM | IC50 (A549): 20 nM | IC50 (H1975): 11 nM | IC50 (NCI-H69): 37 nM | IC50 (786-O): 20 nM | IC50 (MIA PaCa-2): 21 nM | IC50 (HeLa): 12 nM | IC50 (HeLa-MaTu): 11 nM | IC50 (HeLa-MaTu-ADR): 8 nM | IC50 (A431): 14 nM | IC50 (A375): 14 nM | IC50 (MOLM-13): 14 nM
SMILES: C[C@@H](O)[C@@H](C)Oc1nc(Nc2ccc(S(=N)(=O)C3CC3)cc2)ncc1C(F)(F)F (mixture of isomers) [Example 1-SI-2, (RS)—S-Cyclopropyl-S-(4-{[4-{[(1R,2R)-2-hydroxy-1-methylpropyl]oxy}-5-(trifluoromethyl)-pyrimidin-2-yl]amino}phenyl)sulfoximide]
IC50 (NCI-ADR-Res): 33 nM | IC50 (Caki2): 26 nM
